Reference: patent US20230210999A1, “TARGETED PROTEASE DEGRADATION (TED) PLATFORM” (EUBULUS BIOTHERAPEUTICS INC., priority 2020, published 2023)

How the values were obtained:
MV4;11 cells = assay: Cell proliferation experiment (Alamar blue, 72 h), MV4;11; assay type: cell-based, human; settings: Homo sapiens, MV4-11, 72 h, MV4;11 cells, 72 h; read-out: Inhibitory activity IC50 of tested compounds on MV4;11 cells
How it was run: (§1)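 Alamar blue fluorescence after 72 h of compound exposure; IC50 from 4-parameter fit (Min, Max, Slope). Cells passaged ≥2 times, log-phase, 96-well, duplicate wells, 5-fold serial dilutions.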

Daudi cells = assay: Cell proliferation experiment, Daudi; assay type: cell-based, human; settings: Homo sapiens, Daudi, 72 h, Daudi cells, 72 h; read-out: Inhibitory activity IC50 of tested compounds on Daudi cells
How it was run: as §1

NCIH82 cells = assay: Cell proliferation experiment, NCI-H82; assay type: cell-based, human; settings: Homo sapiens, NCI-H82, 72 h, NCIH82 cells, 72 h; read-out: Inhibitory activity IC50 of tested compounds on NCIH82 cells
How it was run: as §1

HT-29 cells = assay: Cell proliferation experiment, HT-29; assay type: cell-based; settings: Homo sapiens; HT-29 cells, 72 h; read-out: Inhibitory activity IC50 of tested compounds on HT-29 cells
Experimental: (§2) Reagents: RPMI-1640 medium, McCoy's 5A medium, IMDM medium, MEM medium, L-15 medium, fetal bovine serum. Penicillin-Streptomycin double antibody, trypsin, etc., 2-mercaptoethanol, NEAA, pyruvate, etc.
(§3) The cells were cultured in conventional ways, and the cells should be passed at least 2 generations before plating. Cells at the logarithmic growth phase were collected, prepared into single cell suspensions and counted. The concentration of cells was adjusted to the desired concentration, and cells were inoculated into a 96-well cell culture plate at 100 μl per well. 100 μL of complete medium of the test compound were added to each well, set up 2 duplicate wells for each concentration, and diluted with a 5-fold gradient, and continued to culture for 72 h. All cells were subjected to IC50 test for corresponding samples. The experimental results are shown in Test Example 4.
(§4) The fluorescence intensity of each well was detected using the Alarm blue method, and IC50 was calculated.
(§5) IC50 was calculated according to the following formula:
(§6) Y=Max+(Min−Max)/[1+(X/IC50)×Slope]
(§7) wherein Min, Max and Slope represent the minimum, maximum and slope respectively.

U-87MG cells = assay: Cell proliferation experiment, U-87MG; assay type: cell-based; settings: Homo sapiens; U-87MG cells, 72 h; read-out: Inhibitory activity IC50 of tested compounds on U-87MG cells
Experimental: as §2, §3, §4, §5, §6, §7

SMILES | IC50 (MV4;11 cells) | IC50 (Daudi cells) | IC50 (NCIH82 cells) | IC50 (HT-29 cells) | IC50 (U-87MG cells)
CC[C@@H]1C(=O)N(C)c2cnc(Nc3ccc(C(=O)NC4CCN(CCO)CC4)cc3OC)nc2N1C1CCCC1 [Compound 865] | ≤ 0.1 µM | ≤ 0.1 µM | ≤ 1 µM | ≤ 0.3 µM | ≤ 0.1 µM
CC[C@@H]1C(=O)N(C)c2cnc(Nc3ccc(C(=O)NC4CCN(CCOCCN)CC4)cc3OC)nc2N1C1CCCC1 [Compound 866] | ≤ 0.1 µM | ≤ 0.1 µM | ≤ 1 µM | ≤ 0.3 µM | 0.1 to 0.5 µM
CC[C@@H]1C(=O)N(C)c2cnc(Nc3ccc(C(=O)NC4CCN(CCOCCNC5(C(=O)Nc6cccc7c6CN(C6CCC(=O)NC6=O)C7=O)CC5)CC4)cc3OC)nc2N1C1CCCC1 (some centres unmarked) [Compound 867] | ≤ 0.1 µM | ≤ 0.1 µM | ≤ 1 µM | 0.3 to 1 µM | 0.5 to 1 µM
CC[C@@H]1C(=O)N(C)c2cnc(Nc3ccc(C(=O)NC4CCN(CCOCCN5CC(Nc6cccc7c6C(=O)N(C6CCC(=O)NC6=O)C7=O)C5)CC4)cc3OC)nc2N1C1CCCC1 (some centres unmarked) [Compound 868] | 0.1 to 1 µM | 0.1 to 1 µM | ≤ 1 µM | > 1 µM | 0.5 to 1 µM
CC[C@@H]1C(=O)N(C)c2cnc(Nc3ccc(C(=O)NC4CCN(CCOCCNCC(O)C#Cc5cccc6c5CN(C5CCC(=O)NC5=O)C6=O)CC4)cc3OC)nc2N1C1CCCC1 (some centres unmarked) [Compound 869] | ≤ 0.1 µM | 0.1 to 1 µM | ≤ 1 µM | > 1 µM | 0.1 to 0.5 µM
CC[C@@H]1C(=O)N(C)c2cnc(Nc3ccc(C(=O)NC4CCN(CCOC[C@@H](N)C(=O)Nc5cccc6c5CN(C5CCC(=O)NC5=O)C6=O)CC4)cc3OC)nc2N1C1CCCC1 (some centres unmarked) [Compound 870] | 0.1 to 1 µM | > 1 µM | > 1 µM | > 1 µM | > 1 µM
CC[C@@H]1C(=O)N(C)c2cnc(Nc3ccc(C(=O)NC4CCN(CCOCCOC[C@H](N)C(=O)Nc5cccc6c5CN(C5CCC(=O)NC5=O)C6=O)CC4)cc3OC)nc2N1C1CCCC1 (some centres unmarked) [Compound 871] | 0.1 to 1 µM | > 1 µM | ≤ 1 µM | > 1 µM | > 1 µM
CC[C@@H]1C(=O)N(C)c2cnc(Nc3ccc(C(=O)NC4CCN(CCOCCOC[C@@H](N)C(=O)Nc5cccc6c5CC(C5CCC(=O)NC5=O)C6=O)CC4)cc3OC)nc2N1C1CCCC1 (some centres unmarked) [Compound 872] | 0.1 to 1 µM | > 1 µM | ≤ 1 µM | > 1 µM | > 1 µM
CC[C@@H]1C(=O)N(C)c2cnc(Nc3ccc(C(=O)NC4CCN(CCOCCNCC#Cc5cccc6c5CN(C5CCC(=O)NC5=O)C6=O)CC4)cc3OC)nc2N1C1CCCC1 (some centres unmarked) [Compound 873] | ≤ 0.1 µM | 0.1 to 1 µM | ≤ 1 µM | ≤ 0.3 µM | 0.1 to 0.5 µM
CC[C@@H]1C(=O)N(C)c2cnc(Nc3ccc(C(=O)NC4CCN(C[C@H](N)COCC#Cc5cccc6c5CN(C5CCC(=O)NC5=O)C6=O)CC4)cc3OC)nc2N1C1CCCC1 (some centres unmarked) [Compound 876] | ≤ 0.1 µM | 0.1 to 1 µM | > 1 µM | > 1 µM | 0.1 to 0.5 µM
CC[C@@H]1C(=O)N(C)c2cnc(Nc3ccc(C(=O)NCCCNCCOCCCC#Cc4cccc5c4CN(C4CCC(=O)NC4=O)C5=O)cc3OC)nc2N1C1CCCC1 (some centres unmarked) [Compound 881] | 0.1 to 1 µM | > 1 µM | > 1 µM | > 1 µM | > 1 µM
CC[C@@H]1C(=O)N(C)c2cnc(Nc3ccc(C(=O)NCCCOCCOCCCNCCC#Cc4cccc5c4CN(C4CCC(=O)NC4=O)C5=O)cc3OC)nc2N1C1CCCC1 (some centres unmarked) [Compound 882] | ≤ 0.1 µM | 0.1 to 1 µM | ≤ 1 µM | 0.3 to 1 µM | ≤ 0.1 µM
CC[C@@H]1C(=O)N(C)c2cnc(Nc3ccc(C(=O)NCCCNCCOCCC#Cc4cccc5c4CN(C4CCC(=O)NC4=O)C5=O)cc3OC)nc2N1C1CCCC1 (some centres unmarked) [Compound 885] | ≤ 0.1 µM | 0.1 to 1 µM | > 1 µM | > 1 µM | 0.1 to 0.5 µM
CC[C@@H]1C(=O)N(C)c2cnc(Nc3ccc(C(=O)NCCCN(C)CCOCCC#Cc4cccc5c4CN(C4CCC(=O)NC4=O)C5=O)cc3OC)nc2N1C1CCCC1 (some centres unmarked) [Compound 886] | ≤ 0.1 µM | 0.1 to 1 µM | > 1 µM | > 1 µM | ≤ 0.1 µM
CC[C@@H]1C(=O)N(C)c2cnc(Nc3ccc(C(=O)NCCOCCOCCCNCCC#Cc4cccc5c4CN(C4CCC(=O)NC4=O)C5=O)cc3OC)nc2N1C1CCCC1 (some centres unmarked) [Compound 894] | ≤ 0.1 µM | 0.1 to 1 µM | > 1 µM | > 1 µM | 0.1 to 0.5 µM
CC[C@@H]1C(=O)N(C)c2cnc(Nc3ccc(C(=O)NCCCNCCOCCOCCC#Cc4cccc5c4CN(C4CCC(=O)NC4=O)C5=O)cc3OC)nc2N1C1CCCC1 (some centres unmarked) [Compound 898] | ≤ 0.1 µM | > 1 µM | > 1 µM | > 1 µM | 0.1 to 0.5 µM
CC[C@@H]1C(=O)N(C)c2cnc(Nc3ccc(C(=O)NC4CCN(CCCOCCCNCCC#Cc5cccc6c5CN(C5CCC(=O)NC5=O)C6=O)CC4)cc3OC)nc2N1C1CCCC1 (some centres unmarked) [Compound 906] | ≤ 0.1 µM | 0.1 to 1 µM | ≤ 1 µM | 0.3 to 1 µM | 0.1 to 0.5 µM
CC[C@@H]1C(=O)N(C)c2cnc(Nc3ccc(C(=O)NC4CCN(CCCNCCOCCCC#Cc5cccc6c5CN(C5CCC(=O)NC5=O)C6=O)CC4)cc3OC)nc2N1C1CCCC1 (some centres unmarked) [Compound 907] | ≤ 0.1 µM | ≤ 0.1 µM | ≤ 1 µM | 0.3 to 1 µM | 0.1 to 0.5 µM
CC[C@@H]1C(=O)N(C)c2cnc(Nc3ccc(C(=O)NC4CCN(CCOCCCNCCC#Cc5cccc6c5CN(C5CCC(=O)NC5=O)C6=O)CC4)cc3OC)nc2N1C1CCCC1 (some centres unmarked) [Compound 908] | ≤ 0.1 µM | ≤ 0.1 µM | ≤ 1 µM | 0.3 to 1 µM | 0.1 to 0.5 µM
CC[C@@H]1C(=O)N(C)c2cnc(Nc3ccc(C(=O)NC4CCN(CCCCNCCC#Cc5cccc6c5CN(C5CCC(=O)NC5=O)C6=O)CC4)cc3OC)nc2N1C1CCCC1 (some centres unmarked) [Compound 909] | ≤ 0.1 µM | ≤ 0.1 µM | ≤ 1 µM | ≤ 0.3 µM | ≤ 0.1 µM
CC[C@@H]1C(=O)N(C)c2cnc(Nc3ccc(C(=O)NC4CCN(CCCCN(C)CCC#Cc5cccc6c5CN(C5CCC(=O)NC5=O)C6=O)CC4)cc3OC)nc2N1C1CCCC1 (some centres unmarked) [Compound 910] | ≤ 0.1 µM | ≤ 0.1 µM | ≤ 1 µM | ≤ 0.3 µM | 0.1 to 0.5 µM
CC[C@@H]1C(=O)N(C)c2cnc(Nc3ccc(C(=O)NC4CCN(CCCN(C)CCCOCCCC#Cc5cccc6c5CN(C5CCC(=O)NC5=O)C6=O)CC4)cc3OC)nc2N1C1CCCC1 (some centres unmarked) [Compound 911] | ≤ 0.1 µM | ≤ 0.1 µM | ≤ 1 µM | 0.3 to 1 µM | ≤ 0.1 µM
CC[C@@H]1C(=O)N(C)c2cnc(Nc3ccc(C(=O)NCCCOCCCNCCC#Cc4cccc5c4CN(C4CCC(=O)NC4=O)C5=O)cc3OC)nc2N1C1CCCC1 (some centres unmarked) [Compound 912] | ≤ 0.1 µM | ≤ 0.1 µM | ≤ 1 µM | 0.3 to 1 µM | ≤ 0.1 µM
CC[C@@H]1C(=O)N(C)c2cnc(Nc3ccc(C(=O)NCCCOCCCN(C)CCC#Cc4cccc5c4CN(C4CCC(=O)NC4=O)C5=O)cc3OC)nc2N1C1CCCC1 (some centres unmarked) [Compound 913] | ≤ 0.1 µM | ≤ 0.1 µM | ≤ 1 µM | 0.3 to 1 µM | ≤ 0.1 µM
CC[C@@H]1C(=O)N(C)c2cnc(Nc3ccc(C(=O)NC4CCN(CCCOCCCN(C)CCC#Cc5cccc6c5CN(C5CCC(=O)NC5=O)C6=O)CC4)cc3OC)nc2N1C1CCCC1 (some centres unmarked) [Compound 914] | ≤ 0.1 µM | ≤ 0.1 µM | ≤ 1 µM | ≤ 0.3 µM | 0.1 to 0.5 µM
CC[C@@H]1C(=O)N(C)c2cnc(Nc3ccc(C(=O)NC4CCN(CCOCCCNCCCC#Cc5cccc6c5CN(C5CCC(=O)NC5=O)C6=O)CC4)cc3OC)nc2N1C1CCCC1 (some centres unmarked) [Compound 915] | ≤ 0.1 µM | ≤ 0.1 µM | ≤ 1 µM | 0.3 to 1 µM | 0.1 to 0.5 µM
CC[C@@H]1C(=O)N(C)c2cnc(Nc3ccc(C(=O)NC4CCN(CCOCCCN(C)CCC#Cc5cccc6c5CN(C5CCC(=O)NC5=O)C6=O)CC4)cc3OC)nc2N1C1CCCC1 (some centres unmarked) [Compound 916] | ≤ 0.1 µM | ≤ 0.1 µM | ≤ 1 µM | ≤ 0.3 µM | 0.1 to 0.5 µM
CC[C@@H]1C(=O)N(C)c2cnc(Nc3ccc(C(=O)NC4CCN(CCCOCCCNCCCC#Cc5cccc6c5CN(C5CCC(=O)NC5=O)C6=O)CC4)cc3OC)nc2N1C1CCCC1 (some centres unmarked) [Compound 917] | ≤ 0.1 µM | ≤ 0.1 µM | ≤ 1 µM | 0.3 to 1 µM | 0.1 to 0.5 µM
